# Like-named read-outs stand apart in the source and are kept apart here.
# What was measured:
# [1] = system: E. faecalis; type: cell-based
# Protocol: (§1) Compounds according to Formula II were tested for antimicrobial activity against a panel of organisms according to standard procedures described by the National Committee for Clinical Laboratory Standards (NCCLS document M7-A5, Vol. 20, No. 2, 2000) except that all testing was performed at 37° C. Compounds were dissolved in 100% dimethyl sulfoxide and were diluted to the final reaction concentration (0.1 μg/mL-100 μg/mL) in microbial growth media. In all cases the final concentration of dimethyl sulfoxide incubated with cells is less than or equal to 1%. For minimum inhibitory concentration (MIC) calculations, 2-fold dilutions of compounds were added to wells of a microtiter plate containing 5×10^4 bacteria cells in a final volume of 100 μL of media (Mueller-Hinton Broth supplemented with 50 mg/L Ca^2+). The optical densities (OD) of the bacterial cells, which measures bacterial cell growth and proliferation, were measured using a commercial plate reader. The MIC value is defined as the lowest compound concentration inhibiting growth of the test organism.
# [2] = system: S. aureus; type: cell-based
# Protocol: as §1
# [3] = Mueller-Hinton Broth supplemented with 50 mg/L Ca2+, 37° C., 2-fold dilutions
MIC (μg/ml) E. faecalis [1] [µg/mL],MIC (μg/ml) S. aureus [2] [µg/mL],Structure (SMILES),"MIC (μg/ml) E. faecalis [1, 3] [µg/mL]","MIC (μg/ml) S. aureus [2, 3] [µg/mL]"
–,–,CCCCCCCCCC(=O)N[C@@H](Cc1c[nH]c2ccccc12)C(=O)N[C@@H](CC(N)=O)C(=O)N[C@@H](CC(=O)O)C(=O)N[C@@H]1C(=O)NCC(=O)N[C@@H](CCCN)C(=O)N[C@@H](CC(=O)O)C(=O)N[C@H](C)C(=O)N[C@@H](CC(=O)O)C(=O)NCC(=O)N[C@H](CO)C(=O)N[C@@H](C(C)CC(=O)O)C(=O)N[C@@H](CC(=O)c2ccccc2N)C(=O)O[C@@H]1C (stereo partly shown) [Compound HH],100,6.25
6.26,0.78,CCCCCCCCCC(=O)N[C@@H](Cc1c[nH]c2ccccc12)C(=O)N[C@H](CC(N)=O)C(=O)N[C@@H](CC(=O)O)C(=O)N[C@@H]1C(=O)NCC(=O)N[C@@H](CCCN)C(=O)N[C@@H](CC(=O)O)C(=O)N[C@H](C)C(=O)N[C@@H](CC(=O)O)C(=O)NCC(=O)N[C@H](CO)C(=O)N[C@@H]([C@H](C)CC(=O)O)C(=O)N[C@@H](CC(=O)c2ccccc2N)C(=O)O[C@@H]1C [Daptomycin],–,–

# Source: patent US7262268B2, “Lipopeptide stereoisomers, methods for preparing same, and useful intermediates” (Cubist Pharmaceuticals, Inc., priority 2001, dated 2007)
